Reference: patent US20170362210A1, “ANTI-ESTROGENIC COMPOUNDS” (PFIZER INC., priority 2015, published 2017)
Where two headings read alike, the source gives them in different places. Marks after values point to notes of the source that are not given here.

Legend:
[1] = test system: estrogen-responsive reporter gene (ERE-tk109-Luc) in MCF-7 cells; assay: Inhibition of E2-induced transcription, ERE-tk109-Luc reporter gene in MCF-7 cells; type: cell-based, human; details: 100 pM 17β-estradiol (E2), 18-22 hours, read-out: IC50, inhibition of E2-induced transcription in breast cells
Experimental: Representative compounds were tested for their inhibitory activity of estrogen according to the assay methods described in Hodges-Gallagher, L., Valentine, C. V., El Bader, S. and Kushner, P. J. (2007) “Histone Deacetylase Inhibitors Enhance the Efficacy of Hormonal Therapy Agents on Breast Cancer Cells and Blocks Anti-estrogen-Driven Uterine Cell Proliferation” Breast Cancer Res Treat, November; 105(3):297-309. Specifically, an estrogen-responsive reporter gene (ERE-tk109-Luc) was transiently transfected into MCF-7 cells and treated with anti-estrogens in triplicate in the presence of 100 pM 17β-estradiol (E2) for 18-22 hours. Luciferase activity was normalized to activity of E2 alone and IC50's were calculated using the least squares fit method.

[2] = test system: MCF-7 breast cancer cells; assay: Inhibition of E2-stimulated proliferation of MCF-7 breast cancer cells; type: cell-based, human; details: 100 pM E2, hormone-depleted medium, 6-8 days
Experimental: Proliferation of MCF-7 breast cancer cells was measured using a fluorescent DNA binding dye 6-8 days after treatment in triplicate with representative compounds in the presence of 100 pM E2 in hormone-depleted medium. IC50's were calculated from individual experiments as in Example 25.

ERα = biological target: T1, ERα (Homo sapiens, UniProt P03372); assay: ERα expression in MCF-7 cell lysates (immunoblot); type: cell-based; details: MCF-7 cells, 100 nM compound, serum-free medium, 24 hours, immunoblot band intensity
T1 construct: ERα expression was detected in MCF-7 cell lysates treated with 100 nM antiestrogens in serum-free medium for 24 hours; endogenous in cells; host or cells: MCF-7
T1 sequence (P03372 1-595): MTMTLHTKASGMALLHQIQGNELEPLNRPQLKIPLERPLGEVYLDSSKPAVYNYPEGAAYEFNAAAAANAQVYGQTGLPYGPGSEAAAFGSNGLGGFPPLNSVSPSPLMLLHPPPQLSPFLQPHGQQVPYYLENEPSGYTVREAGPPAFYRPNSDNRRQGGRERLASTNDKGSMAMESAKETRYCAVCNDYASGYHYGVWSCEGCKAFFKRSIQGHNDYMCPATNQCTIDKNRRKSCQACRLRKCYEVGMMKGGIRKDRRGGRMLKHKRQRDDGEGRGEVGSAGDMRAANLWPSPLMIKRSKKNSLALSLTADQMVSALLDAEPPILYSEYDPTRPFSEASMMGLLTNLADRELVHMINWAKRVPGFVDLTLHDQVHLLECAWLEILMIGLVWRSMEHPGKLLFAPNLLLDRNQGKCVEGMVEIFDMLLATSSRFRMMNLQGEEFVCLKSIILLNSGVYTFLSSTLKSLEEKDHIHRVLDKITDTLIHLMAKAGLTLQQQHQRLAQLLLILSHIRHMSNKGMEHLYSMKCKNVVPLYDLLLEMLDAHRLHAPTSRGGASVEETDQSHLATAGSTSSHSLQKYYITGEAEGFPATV
Experimental: ERα expression was detected in MCF-7 cell lysates treated with 100 nM antiestrogens in serum-free medium for 24 hours and immunoblotted with an antibody specific to ERα.
Band intensity was normalized relative to vehicle for each individual experiment and listed in Table 3 (Relative change ERα levels (% vehicle)).

[3] = test system: AP activity in ECC-1 cells; assay: Alkaline phosphatase (AP) assay in ECC-1 uterine cells, induction of AP activity; type: cell-based, human; details: 3 days, normalized to 500 pM E2, maximum activity observed regardless of dose
Experimental: (§1) Method for performing the alkaline phosphatase (AP) assay. ECC-1 cells (American Type Culture Collection, Manassas, Va.) were maintained in RPMI medium plus 10% fetal bovine serum at 37° C. At the beginning of the assay trypsinized cells were resuspended in RPMI medium plus 5% charcoal dextran stripped serum (CDSS, (Hyclone, Logan, Utah)) and plated at a density of 25-50 k cells per well into a 96-well plate for at least 6 hours. Representative compounds were diluted in serum-free medium and added 1:1 to plated cells in replicate wells (2.5% CDSS final). Plates were incubated for 3 days at 37° C. and subsequently frozen at −80° C. to lyse cells after removing the medium. Thawed plates were incubated with a chromogenic substrate of AP, p-nitrophenyl phosphate (Invitrogen, Grand Island, N.Y.), for 40 minutes at 40° C. Absorbances were read at 405 nm using a plate spectrophotometer. AP activity was normalized to 500 pM 17β-estradiol (E2), reported as the maximum activity observed for each individual experiment, regardless of dose.

[4] = test system: AP activity in ECC-1 cells; assay: Alkaline phosphatase (AP) assay in ECC-1 cells co-treated with 500 pM E2; type: cell-based, human; details: 3 days
Experimental: as §1
AP activity was assayed as in Example 28 but cells were co-treated with 500 pM E2.

[5] = Homo sapiens, MCF7, MCF-7 cells

Which results are given for CC1=C(c2ccc(O)cc2)C(c2ccc(OC3CN(CCC(F)(F)F)C3)cc2)Oc2cc(O)ccc21 (single isomer, unassigned) [Compound 111, 3-(4-hydroxyphenyl)-4-methyl-2-(4-((1-(3,3,3-trifluoropropyl)azetidin-3-yl)oxy)phenyl)-2H-chromen-7-ol]?
IC50 ([1]; MCF-7 cells): 165 nM; IC50 ([2]; MCF-7 cells): > 300 nM; Relative change ERα levels (% vehicle) (ERα): 82 % veh; Induction of AP activity in uterine cells (% E2) [3]: 32 % E2; AP activity (% E2), cells co-treated with 500 pM E2 [4]: 61 % E2

With CCCN1CC(Oc2ccc(C3Oc4cc(O)ccc4C(C)=C3c3ccccc3Cl)cc2)C1 (stereo not shown) [Compound 120, 3-(2-chlorophenyl)-4-methyl-2-(4-((1-propylazetidin-3-yl)oxy)phenyl)-2H-chromen-7-ol] as the molecule, how does the IC50 [1, 5] read?
The IC50 was 8 nM.

And the IC50 [2, 5]?
The IC50 was 10 nM.

What about the “Relative change ERα levels (% vehicle)” value (ERα) of the same molecule?
Its value is 61 % veh.

What about the “Induction of AP activity in uterine cells (% E2)” value (shortened to “Induction of AP activity … (% E2)”) [3] of the same molecule?
Its value is 12 % E2.

What about the “AP activity (% E2), cells co-treated with 500 pM E2” value (“AP activity (% E2)” for short) [4] of the same molecule?
Its value is 14 % E2.

Which IC50 ([1]; MCF-7 cells) does the source give for CCCN1CC(Cc2ccc(C3Oc4cc(O)ccc4C(C)=C3c3ccc(O)cc3)cc2)C1 (single isomer, unassigned) [Compound 103, 3-(4-hydroxyphenyl)-4-methyl-2-(4-((1-propylazetidin-3-yl)methyl)phenyl)-2H-chromen-7-ol] here?
The IC50 was 27 nM.

And the IC50 ([2]; MCF-7 cells)?
Its IC50 is 59 nM.

And the “Relative change ERα levels (% vehicle)” value (ERα)?
The value was 55 % veh.

What about the “Induction of AP activity … (% E2)” value [3] of the same molecule?
The value was 23 % E2.

What about the “AP activity (% E2)” value [4] of the same molecule?
The value was 36 % E2.

With CCCN1CC(Cc2ccc(C3Oc4cc(O)ccc4C(C)=C3c3ccc(O)cc3)cc2F)C1 (single isomer, unassigned) [Compound 112, 2-(3-fluoro-4-((1-propylazetidin-3-yl)methyl)phenyl)-3-(4-hydroxyphenyl)-4-methyl-2H-chromen-7-ol] as the molecule, how does the IC50 ([1]; MCF-7 cells) read?
Its IC50 is 2 nM.

And the IC50 ([2]; MCF-7 cells)?
Its IC50 is 7 nM.

And the “Relative change ERα levels (% vehicle)” value (ERα)?
The value was 35 % veh.

And the “Induction of AP activity … (% E2)” value [3]?
The value was 5* % E2.

And the “AP activity (% E2)” value [4]?
Its value is 4 % E2.

With CC1=C(c2ccc(O)cc2)C(c2ccc(OC3CN(CCC(F)(F)F)C3)cc2)Oc2cc(O)ccc21 (single isomer, unassigned) [Compound 110, 3-(4-hydroxyphenyl)-4-methyl-2-(4-((1-(3,3,3-trifluoropropyl)azetidin-3-yl)oxy)phenyl)-2H-chromen-7-ol] as the molecule, how does the IC50 ([1]; MCF-7 cells) read?
The IC50 was 14 nM.

And the IC50 [2, 5]?
The IC50 was 216 nM.

What about the “Relative change ERα levels (% vehicle)” value (ERα) of the same molecule?
The value was 104 % veh.

What about the “Induction of AP activity … (% E2)” value [3] of the same molecule?
The value was 35 % E2.

What about the “AP activity (% E2)” value [4] of the same molecule?
Its value is 36 % E2.
